In the supplement of paper PMC10331698:
± gives the standard deviation of the averaged measurements.

Key:
Assay in all cases: level (log10 ratio to DMSO vehicle control); higher = higher biomarker level / cell amount than vehicle control
[1] = compound: C=C(C)C(=O)OCCC(F)(F)C(F)(F)C(F)(F)C(F)(F)C(F)(F)C(F)(F)C(F)(F)C(F)(F)F [8:2 Fluorotelomer methacrylate] (in DMSO)
Procedure: (§1)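 BioMAP Diversity Plus panel of 12 human primary cell co-culture systems (3C, 4H, LPS, SAg, BT, BF4T, BE3C, CASM3C, HDF3CGF, KF3CT, MyoF, Mphg). Compounds were added 1 h before stimulation and left for 24 h (MyoF 48 h; BT 72 h for soluble read-outs or 6 d for IgG). Biomarkers were read by ELISA, cytotoxicity by SRB, PBMC viability and proliferation by Alamar Blue. Each well value was divided by the mean of 8 DMSO control wells on the same plate and log10 transformed; duplicate blinded samples were tested at 4 concentrations.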

[2] = compound: OCC(F)(F)C(F)(F)C(F)(F)C(F)(F)C(F)(F)C(F)(F)CO [1H,1H,8H,8H-Perfluorooctane-1,8-diol] (in DMSO)
Procedure: as §1

[3] = compound: OCC(F)(F)C(F)(F)C(F)(F)C(F)F [1H,1H,5H-Perfluoropentanol] (in DMSO)
Procedure: as §1

[4] = compound: O=S(=O)(O)C(F)(F)C(F)(F)C(F)(F)C(F)(F)C(F)(F)C(F)(F)C(F)(F)F [Perfluoroheptanesulfonic acid] (in DMSO)
Procedure: as §1

[5] = compound: C[C@@H]1C[C@H]2[C@@H]3CCC4=CC(=O)C=C[C@]4(C)[C@@]3(F)[C@@H](O)C[C@]2(C)[C@@]1(O)C(=O)COP(=O)(O)O [Dexamethasone sodium phosphate] (in DMSO)
Procedure: as §1

[6] = compound: O=C(O)C(F)(F)C(F)(F)C(F)(F)OC(F)(F)F [Perfluoro(4-methoxybutanoic) acid] (in DMSO)
Procedure: as §1

| Test System | level (log10) ([1]; 6700 nM) | level (log10) ([1]; 20000 nM) | level (log10) ([2]; 6700 nM) | level (log10) ([2]; 20000 nM) | level (log10) ([2]; 60000 nM) | level (log10) ([3]; 6700 nM) | level (log10) ([3]; 20000 nM) | level (log10) ([3]; 60000 nM) | level (log10) ([4]; 1500 nM) | level (log10) ([4]; 4400 nM) | level (log10) ([4]; 13000 nM) | level (log10) ([4]; 40000 nM) | level (log10) ([5]; 1500 nM) | level (log10) ([5]; 4400 nM) | level (log10) ([5]; 13000 nM) | level (log10) ([5]; 40000 nM) | level (log10) ([6]; 6700 nM) | level (log10) ([6]; 20000 nM) | level (log10) ([6]; 60000 nM) |
| --- | --- | --- | --- | --- | --- | --- | --- | --- | --- | --- | --- | --- | --- | --- | --- | --- | --- | --- | --- |
| lMphg:CD69 | -0.041 ± 0.037 | -0.041 | -0.0165 ± 0.036 | -0.024 ± 0.025 | 0.001 ± 0.038 | -0.039 ± 0.031 | 0.0325 ± 0.019 | 0.034 ± 0.028 | -0.014 ± 0.055 | -0.008 ± 0.027 | -0.0145 ± 0.00071 | -0.0155 ± 0.018 | 0.039 ± 0.014 | -0.007 ± 0.017 | -0.0155 ± 0.029 | -0.0585 ± 0.022 | -0.0165 ± 0.047 | -0.0145 ± 0.071 | 0.005 ± 0.099 |
| lMphg:CD106/VCAM-1 | -0.0245 ± 0.0035 | -0.0315 ± 0.016 | -0.024 ± 0.041 | -0.0125 ± 0.033 | -0.003 ± 0.048 | -0.0035 ± 0.021 | 0.0165 ± 0.037 | 0.0145 ± 0.018 | -0.0135 ± 0.0035 | -0.0285 ± 0.021 | -0.0115 ± 0.016 | -0.019 ± 0.0014 | -0.018 ± 0.0071 | -0.039 ± 0.0028 | -0.0615 ± 0.013 | -0.086 ± 0.0042 | 0.0015 ± 0.0035 | -0.0015 ± 0.022 | -0.0085 ± 0.021 |
| lMphg:CXCL8/IL-8 | 0.0355 ± 0.023 | 0.085 ± 0.016 | -0.0085 ± 0.074 | -0.03 ± 0.028 | 0.011 ± 0.034 | 0.018 ± 0.017 | -0.0005 ± 0.019 | 0.035 ± 0.0028 | -0.001 ± 0.038 | -0.0165 ± 0.0078 | -0.018 ± 0.023 | 0.074 ± 0.069 | -0.108 ± 0.0064 | -0.138 ± 0.015 | -0.136 ± 0.011 | -0.129 ± 0.034 | 0.001 ± 0.04 | 0.005 ± 0.011 | 0.083 ± 0.037 |
| lMphg:IL-1alpha | -0.007 ± 0.028 | 0.0165 ± 0.073 | -0.011 ± 0.041 | -0.012 ± 0.0085 | 0.0855 ± 0.047 | -0.055 ± 0.017 | -0.0185 ± 0.005 | 0.011 ± 0.044 | 0.0075 ± 0.036 | -0.0045 ± 0.028 | 0 ± 0.042 | 0.073 ± 0.044 | -0.0345 ± 0.005 | -0.0335 ± 0.0092 | -0.102 ± 0.05 | -0.096 ± 0.0099 | -0.051 ± 0.018 | -0.0345 ± 0.029 | 0.027 ± 0.068 |
| lMphg:M-CSF | -0.013 ± 0.018 | -0.0365 ± 0.022 | -0.015 ± 0.013 | -0.013 ± 0.016 | 0.013 ± 0.067 | 0.0115 ± 0.016 | -0.0125 ± 0.0064 | 0.0175 ± 0.021 | -0.0065 ± 0.023 | -0.01 ± 0.037 | -0.0285 ± 0.039 | -0.0285 ± 0.0035 | -0.022 ± 0.034 | -0.031 ± 0.058 | -0.0455 ± 0.028 | -0.0495 ± 0.0021 | -0.0095 ± 0.0078 | -0.019 ± 0.011 | -0.0115 ± 0.0064 |
| lMphg:SRB | -0.0035 ± 0.0035 | -0.0055 ± 0.0064 | -0.0125 ± 0.0078 | -0.0115 ± 0.018 | -0.0245 ± 0.00071 | -0.0065 ± 0.005 | -0.0045 ± 0.0064 | 0.006 ± 0.0014 | -0.01 ± 0.013 | -0.0055 ± 0.011 | 0.0015 ± 0.0035 | 0.003 ± 0.0057 | -0.0045 ± 0.0092 | -0.0125 ± 0.0078 | -0.006 ± 0.0014 | -0.0265 ± 0.0021 | -0.008 ± 0.0099 | -0.0135 ± 0.0035 | -0.0055 ± 0.016 |
| lMphg:SRB-Mphg | 0.0085 ± 0.011 | -0.009 ± 0.031 | -0.053 ± 0.079 | -0.031 ± 0.014 | -0.018 ± 0.027 | -0.012 ± 0.023 | -0.0605 ± 0.057 | 0.0145 ± 0.033 | -0.0005 ± 0.016 | -0.0025 ± 0.036 | 0.002 ± 0.0099 | -0.0005 ± 0.036 | -0.0225 ± 0.022 | -0.0625 ± 0.005 | -0.0715 ± 0.018 | -0.0805 ± 0.057 | -0.013 ± 0.02 | 0.0125 ± 0.012 | 0.0115 ± 0.0021 |
| lMphg:sIL-10 | -0.107 ± 0.049 | -0.116 ± 0.0021 | -0.175 ± 0.042 | -0.17 ± 0.037 | -0.216 ± 0.0057 | -0.0455 ± 0.069 | -0.012 ± 0.025 | -0.014 ± 0.027 | -0.042 ± 0.018 | -0.109 ± 0.048 | -0.101 ± 0.023 | -0.239 ± 0.072 | -0.286 ± 0.05 | -0.503 ± 0.054 | -0.62 ± 0.056 | -0.646 ± 0.054 | 0 ± 0.03 | -0.017 ± 0.0014 | -0.0345 ± 0.023 |
